Test results taken from patent US6255335A, “Substituted 2-oxo-alkanoic acid-[2-(indol-3-yl)-ethyl] amides” (Bayer Aktiengesellschaft, priority 1998, dated 2001).
In brackets after ≈: the same amount, converted by molar mass.

Columns and labels:
Type in all cases: cell-based
Staph. aureus = test: MIC by serial dilution on iso-sensitest agar, Staph. aureus; conditions: Staphylococcus aureus, 37° C., about 20 hours
Procedure: (§1) The minimum inhibitory concentrations (MIC) of the compounds according to the invention were determined by serial dilution methods on iso-sensitest agar (Oxoid). For each test substance, a number of agar plates were prepared which, each with a doubled dilution, contained decreasing concentrations of the active compound. The agar plates were inoculated using a multipoint inoculator (Denley). For inoculation, overnight cultures of the pathogens were used which had previously been diluted such that each inoculation point contained about 10^4 colony-forming particles. The inoculated agar plates were incubated at 37° C., and the bacterial growth was read off after about 20 hours. The MIC value (μg/ml) indicates the lowest active compound concentration at which no growth could be detected with the naked eye.

Staph. interm. = test: MIC by serial dilution on iso-sensitest agar, Staph. interm.; conditions: strain ATCC 29663; 37° C., about 20 hours
Procedure: as §1

Staph. hyicus = test: MIC by serial dilution on iso-sensitest agar, Staph. hyicus; conditions: Staphylococcus hyicus, 20 h, 37° C., about 20 hours
Procedure: as §1

[1] = strain 9621, actual clinical isolate
[2] = strain 9622, actual clinical isolate
[3] = strain 9637, actual clinical isolate
[4] = strain 9641, actual clinical isolate

SMILES	MIC (Staph. aureus; ATCC6538, strain ATCC 6538)	MIC (Staph. aureus; ATCC25923, strain ATCC 25923)	MIC (Staph. aureus; ATCC29213, strain ATCC 29213)	MIC (Staph. interm.)	MIC (Staph. hyicus; [1])	MIC (Staph. hyicus; [2])	MIC (Staph. hyicus; [3])	MIC (Staph. hyicus; [4])
CCC(C)C(=O)C(=O)NCCc1c[nH]c2ccccc12 (stereo not shown) [A, reference compound]	0.25 mg/L (≈ 0.918 µM)	0.125 mg/L (≈ 0.459 µM)	0.125 mg/L (≈ 0.459 µM)	8 mg/L (≈ 29.4 µM)	1 mg/L (≈ 3.67 µM)	0.5 mg/L (≈ 1.84 µM)	0.25 mg/L (≈ 0.918 µM)	0.25 mg/L (≈ 0.918 µM)
CCC(C)C(=O)C(=O)NCCc1cn(C)c2ccccc12 (stereo not shown) [Compound 1]	0.015 mg/L (≈ 0.0524 µM)	0.015 mg/L (≈ 0.0524 µM)	0.015 mg/L (≈ 0.0524 µM)	2 mg/L (≈ 6.98 µM)	0.06 mg/L (≈ 0.21 µM)	0.06 mg/L (≈ 0.21 µM)	0.015 mg/L (≈ 0.0524 µM)	0.015 mg/L (≈ 0.0524 µM)
CCC(C)C(=O)C(=O)NCCc1cn(C(C)C)c2ccccc12 (stereo not shown) [Compound 3]	0.03 mg/L (≈ 0.0954 µM)	0.03 mg/L (≈ 0.0954 µM)	0.03 mg/L (≈ 0.0954 µM)	4 mg/L (≈ 12.7 µM)	1 mg/L (≈ 3.18 µM)	0.5 mg/L (≈ 1.59 µM)	0.03 mg/L (≈ 0.0954 µM)	0.03 mg/L (≈ 0.0954 µM)
CCC(C)C(=O)C(=O)NCCc1cn(Cc2ccccc2)c2ccccc12 (stereo not shown) [Compound 6]	0.125 mg/L (≈ 0.345 µM)	0.125 mg/L (≈ 0.345 µM)	0.125 mg/L (≈ 0.345 µM)	8 mg/L (≈ 22.1 µM)	1 mg/L (≈ 2.76 µM)	1 mg/L (≈ 2.76 µM)	0.125 mg/L (≈ 0.345 µM)	0.125 mg/L (≈ 0.345 µM)
CC(C)CC(=O)C(=O)NCCc1cn(C(C)C)c2ccccc12 [Compound 4]	0.125 mg/L (≈ 0.398 µM)	0.06 mg/L (≈ 0.191 µM)	0.25 mg/L (≈ 0.795 µM)	2 mg/L (≈ 6.36 µM)	0.06 mg/L (≈ 0.191 µM)	0.25 mg/L (≈ 0.795 µM)	0.125 mg/L (≈ 0.398 µM)	0.125 mg/L (≈ 0.398 µM)
CC(C)CC(=O)C(=O)NCCc1cn(-c2ccccc2)c2ccccc12 [Compound 5]	0.03 mg/L (≈ 0.0861 µM)	0.06 mg/L (≈ 0.172 µM)	0.06 mg/L (≈ 0.172 µM)	1 mg/L (≈ 2.87 µM)	0.06 mg/L (≈ 0.172 µM)	0.015 mg/L (≈ 0.043 µM)	0.06 mg/L (≈ 0.172 µM)	0.06 mg/L (≈ 0.172 µM)
CC(C)CC(=O)C(=O)NCCc1c[nH]c2ccccc12 [B, reference compound]	0.125 mg/L (≈ 0.459 µM)	0.25 mg/L (≈ 0.918 µM)	0.25 mg/L (≈ 0.918 µM)	2 mg/L (≈ 7.34 µM)	0.25 mg/L (≈ 0.918 µM)	0.03 mg/L (≈ 0.11 µM)	0.25 mg/L (≈ 0.918 µM)	0.25 mg/L (≈ 0.918 µM)
CC(C)CC(=O)C(=O)NCCc1cn(C)c2ccccc12 [Compound 2]	0.03 mg/L (≈ 0.105 µM)	0.03 mg/L (≈ 0.105 µM)	0.03 mg/L (≈ 0.105 µM)	2 mg/L (≈ 6.98 µM)	0.03 mg/L (≈ 0.105 µM)	0.03 mg/L (≈ 0.105 µM)	0.03 mg/L (≈ 0.105 µM)	0.03 mg/L (≈ 0.105 µM)
